Tests used:
[1] = test system: 3T3-L1 cells; settings: ref Harmon and Harp, 2001; cited from earlier work
[2] = test system: TRPC5; parameters: method as in Wong et al., 2010; settings: ref Wong et al., 2010; cited from earlier work
[3] = test system: endogenous Ca2+ entry mechanism; assay: Ca2+ responses in control non-induced (Tet-) HEK cells with extracellular Ca2+; assay type: cell-based, human; settings: 10 μM compound
[4] = target: T1, TRPC4 (Homo sapiens, UniProt Q9UBN4); assay: Outside-out patch recordings from TRPC4 Tet+ cells stimulated by (-)-Englerin A; assay type: cell-based; settings: 5 μM compound, 100 nM (-)-Englerin A
T1 construct: expressed in transfected cells
T1 sequence (Q9UBN4 1-893 isoform Q9UBN4-2): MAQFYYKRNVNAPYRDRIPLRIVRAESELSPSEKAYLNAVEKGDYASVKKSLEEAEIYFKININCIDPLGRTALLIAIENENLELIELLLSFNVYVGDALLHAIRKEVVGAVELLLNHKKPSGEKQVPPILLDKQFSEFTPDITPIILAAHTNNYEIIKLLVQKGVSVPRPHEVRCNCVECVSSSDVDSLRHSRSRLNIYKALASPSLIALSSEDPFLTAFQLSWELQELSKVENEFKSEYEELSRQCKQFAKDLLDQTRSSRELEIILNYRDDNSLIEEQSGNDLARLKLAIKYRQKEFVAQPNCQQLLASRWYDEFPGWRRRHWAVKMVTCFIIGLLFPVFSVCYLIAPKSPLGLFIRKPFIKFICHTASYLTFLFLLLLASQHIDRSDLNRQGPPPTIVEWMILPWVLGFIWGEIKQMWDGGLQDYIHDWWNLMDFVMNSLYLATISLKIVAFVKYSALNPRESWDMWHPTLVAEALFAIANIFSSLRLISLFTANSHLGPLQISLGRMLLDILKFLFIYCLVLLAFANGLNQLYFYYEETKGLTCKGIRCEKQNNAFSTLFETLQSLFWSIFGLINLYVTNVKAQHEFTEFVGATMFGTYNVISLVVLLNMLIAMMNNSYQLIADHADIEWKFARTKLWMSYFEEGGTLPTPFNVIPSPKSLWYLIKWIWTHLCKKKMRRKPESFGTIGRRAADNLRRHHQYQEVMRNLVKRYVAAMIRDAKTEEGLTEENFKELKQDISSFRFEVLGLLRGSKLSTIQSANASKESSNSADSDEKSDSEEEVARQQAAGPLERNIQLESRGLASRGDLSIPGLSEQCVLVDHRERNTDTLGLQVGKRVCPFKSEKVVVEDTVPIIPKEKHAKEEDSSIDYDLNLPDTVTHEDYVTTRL

[5] = target: T2, human TRPC5 (Homo sapiens, UniProt Q9UL62); assay: Gd3+-evoked Ca2+ entry in TRPC5-expressing (Tet+) HEK 293 cells; assay type: cell-based
T2 construct: expressed in transfected cells
T2 sequence (Q9UL62 1-973): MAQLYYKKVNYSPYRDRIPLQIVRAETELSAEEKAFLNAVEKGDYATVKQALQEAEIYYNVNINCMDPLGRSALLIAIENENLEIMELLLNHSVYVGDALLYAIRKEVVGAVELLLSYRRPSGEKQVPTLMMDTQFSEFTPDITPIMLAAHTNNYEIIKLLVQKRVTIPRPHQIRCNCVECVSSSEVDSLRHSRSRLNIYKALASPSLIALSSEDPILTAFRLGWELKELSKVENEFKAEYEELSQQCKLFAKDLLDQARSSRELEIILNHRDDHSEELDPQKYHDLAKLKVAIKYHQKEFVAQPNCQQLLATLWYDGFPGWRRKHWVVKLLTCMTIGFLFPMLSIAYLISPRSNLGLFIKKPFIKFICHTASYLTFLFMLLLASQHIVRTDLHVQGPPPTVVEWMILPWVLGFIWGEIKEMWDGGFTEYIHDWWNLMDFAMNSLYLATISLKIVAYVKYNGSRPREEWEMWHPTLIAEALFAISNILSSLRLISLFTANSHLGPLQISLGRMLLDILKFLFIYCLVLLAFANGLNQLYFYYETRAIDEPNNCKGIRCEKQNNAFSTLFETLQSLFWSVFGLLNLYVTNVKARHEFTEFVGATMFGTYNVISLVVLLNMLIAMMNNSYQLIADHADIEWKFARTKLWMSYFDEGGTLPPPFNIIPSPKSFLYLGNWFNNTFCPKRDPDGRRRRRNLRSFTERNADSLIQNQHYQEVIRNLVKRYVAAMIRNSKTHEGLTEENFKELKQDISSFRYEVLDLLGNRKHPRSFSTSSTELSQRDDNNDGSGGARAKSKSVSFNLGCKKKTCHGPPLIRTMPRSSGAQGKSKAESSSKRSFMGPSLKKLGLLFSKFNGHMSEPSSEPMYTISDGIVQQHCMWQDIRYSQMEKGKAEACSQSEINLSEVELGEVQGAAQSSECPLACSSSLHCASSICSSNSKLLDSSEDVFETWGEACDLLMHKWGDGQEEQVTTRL

[6] = test system: endogenous Ca2+ release signal; assay: Endogenous Ca2+ release in non-induced (Tet-) TRPC5 HEK cells; assay type: cell-based, human; settings: 10 μM compound, no extracellular Ca2+
[7] = target: T3, TRPV4 channels (Homo sapiens, UniProt Q9HBA0); assay: 4alphaPDD-evoked Ca2+ entry in CHO K1 cells expressing TRPV4; assay type: cell-based; settings: 10 μM compound, 1 μM 4αPDD, fluo-4
T3 construct: expressed in transfected cells

[8] = target: T2, human TRPC5; assay: Outside-out patch recordings from TRPC5 Tet+ cells; assay type: cell-based; settings: outside-out patch, (-)-Englerin A-activated TRPC5
[9] = target: T2, human TRPC5; assay: S1P- or LPC-evoked Ca2+ entry in TRPC5 (Tet+) HEK 293 cells; assay type: cell-based; settings: 10 μM compound, fura-2
[10] = target: T4, TRPC3 channels (Homo sapiens, UniProt Q13507); assay: OAG-evoked Ca2+ entry in cells overexpressing TRPC3; assay type: cell-based; settings: 10 μM compound, 50 μM OAG, fura-2
T4 construct: expressed in transfected cells
T4 sequence (Q13507 74-921 limits assumed): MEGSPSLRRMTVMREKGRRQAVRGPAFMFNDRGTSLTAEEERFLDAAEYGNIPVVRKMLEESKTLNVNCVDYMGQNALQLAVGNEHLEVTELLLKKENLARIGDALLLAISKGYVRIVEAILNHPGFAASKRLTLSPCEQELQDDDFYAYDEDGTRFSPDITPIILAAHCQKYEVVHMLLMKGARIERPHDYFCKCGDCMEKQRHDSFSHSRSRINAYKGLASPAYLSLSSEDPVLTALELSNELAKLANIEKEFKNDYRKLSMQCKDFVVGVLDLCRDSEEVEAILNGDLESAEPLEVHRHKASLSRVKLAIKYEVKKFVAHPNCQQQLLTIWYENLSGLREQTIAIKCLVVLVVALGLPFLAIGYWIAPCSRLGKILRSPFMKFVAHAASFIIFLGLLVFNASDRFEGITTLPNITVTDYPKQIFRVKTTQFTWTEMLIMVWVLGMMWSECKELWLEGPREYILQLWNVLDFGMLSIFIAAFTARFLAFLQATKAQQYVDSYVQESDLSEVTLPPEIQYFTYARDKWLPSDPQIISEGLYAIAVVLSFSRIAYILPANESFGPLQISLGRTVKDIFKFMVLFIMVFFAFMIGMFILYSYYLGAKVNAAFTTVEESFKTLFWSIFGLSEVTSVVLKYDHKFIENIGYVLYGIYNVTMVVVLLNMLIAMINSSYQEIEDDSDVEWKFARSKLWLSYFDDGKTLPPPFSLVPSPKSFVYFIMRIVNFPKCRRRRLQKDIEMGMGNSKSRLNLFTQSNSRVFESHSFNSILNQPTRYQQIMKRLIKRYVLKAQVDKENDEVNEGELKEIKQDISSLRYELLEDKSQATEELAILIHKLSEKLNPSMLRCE

[11] = target: T5, TRPM2 channels (Homo sapiens, UniProt O94759); assay: H2O2-evoked Ca2+ entry in cells overexpressing TRPM2; assay type: cell-based; settings: 10 μM compound, 1 mM H2O2, fura-2
T5 construct: expressed in transfected cells

[12] = target: T6, TRPC1-TRPC5 heteromeric channels (Homo sapiens, UniProt P48995+Q9UL62); assay: Whole-cell recordings of TRPC1-TRPC5 heteromeric channels stimulated by (-)-Englerin A; assay type: cell-based; settings: 5 μM compound, 100 nM (-)-Englerin A
T6 construct: expressed in transfected cells; host or cells: HEK 293-MSR, transient, Lipofectamine 2000

[13] = test system: GABA-evoked ionic currents; parameters: method as in Goutman et al., 2003; settings: ref Goutman et al., 2003; cited from earlier work
[14] = test system: TRPV4 channels; parameters: method as in Ma et al., 2012; settings: ref Ma et al., 2012; cited from earlier work
[15] = target: T2, human TRPC5; assay: Whole-cell patch clamp of TRPC5-expressing (Tet+) HEK 293 cells; assay type: cell-based; settings: 10 μM compound

T3 sequence (Q9HBA0 whole entry): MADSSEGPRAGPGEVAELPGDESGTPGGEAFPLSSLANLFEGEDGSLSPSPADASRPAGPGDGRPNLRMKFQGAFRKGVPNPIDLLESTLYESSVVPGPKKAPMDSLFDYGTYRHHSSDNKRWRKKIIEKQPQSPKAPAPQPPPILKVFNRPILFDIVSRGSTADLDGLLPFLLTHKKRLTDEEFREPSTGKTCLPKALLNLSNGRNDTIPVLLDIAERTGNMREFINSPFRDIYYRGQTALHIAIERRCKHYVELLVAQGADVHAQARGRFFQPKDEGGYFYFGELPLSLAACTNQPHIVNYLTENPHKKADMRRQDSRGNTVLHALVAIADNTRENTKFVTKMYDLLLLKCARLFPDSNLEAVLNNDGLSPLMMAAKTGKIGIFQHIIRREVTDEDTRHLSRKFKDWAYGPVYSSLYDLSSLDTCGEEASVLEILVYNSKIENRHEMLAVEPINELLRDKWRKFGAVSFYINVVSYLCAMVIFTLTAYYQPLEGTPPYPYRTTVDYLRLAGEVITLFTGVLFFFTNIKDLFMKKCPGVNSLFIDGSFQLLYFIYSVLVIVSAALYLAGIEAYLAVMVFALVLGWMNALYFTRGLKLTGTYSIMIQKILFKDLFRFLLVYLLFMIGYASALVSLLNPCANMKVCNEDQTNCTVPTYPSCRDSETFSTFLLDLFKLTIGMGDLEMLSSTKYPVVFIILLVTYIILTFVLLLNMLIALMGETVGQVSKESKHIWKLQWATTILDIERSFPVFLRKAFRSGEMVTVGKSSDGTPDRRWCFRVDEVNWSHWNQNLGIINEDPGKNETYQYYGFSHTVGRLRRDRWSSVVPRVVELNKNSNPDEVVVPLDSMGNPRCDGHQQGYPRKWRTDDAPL
T5 sequence (O94759 whole entry): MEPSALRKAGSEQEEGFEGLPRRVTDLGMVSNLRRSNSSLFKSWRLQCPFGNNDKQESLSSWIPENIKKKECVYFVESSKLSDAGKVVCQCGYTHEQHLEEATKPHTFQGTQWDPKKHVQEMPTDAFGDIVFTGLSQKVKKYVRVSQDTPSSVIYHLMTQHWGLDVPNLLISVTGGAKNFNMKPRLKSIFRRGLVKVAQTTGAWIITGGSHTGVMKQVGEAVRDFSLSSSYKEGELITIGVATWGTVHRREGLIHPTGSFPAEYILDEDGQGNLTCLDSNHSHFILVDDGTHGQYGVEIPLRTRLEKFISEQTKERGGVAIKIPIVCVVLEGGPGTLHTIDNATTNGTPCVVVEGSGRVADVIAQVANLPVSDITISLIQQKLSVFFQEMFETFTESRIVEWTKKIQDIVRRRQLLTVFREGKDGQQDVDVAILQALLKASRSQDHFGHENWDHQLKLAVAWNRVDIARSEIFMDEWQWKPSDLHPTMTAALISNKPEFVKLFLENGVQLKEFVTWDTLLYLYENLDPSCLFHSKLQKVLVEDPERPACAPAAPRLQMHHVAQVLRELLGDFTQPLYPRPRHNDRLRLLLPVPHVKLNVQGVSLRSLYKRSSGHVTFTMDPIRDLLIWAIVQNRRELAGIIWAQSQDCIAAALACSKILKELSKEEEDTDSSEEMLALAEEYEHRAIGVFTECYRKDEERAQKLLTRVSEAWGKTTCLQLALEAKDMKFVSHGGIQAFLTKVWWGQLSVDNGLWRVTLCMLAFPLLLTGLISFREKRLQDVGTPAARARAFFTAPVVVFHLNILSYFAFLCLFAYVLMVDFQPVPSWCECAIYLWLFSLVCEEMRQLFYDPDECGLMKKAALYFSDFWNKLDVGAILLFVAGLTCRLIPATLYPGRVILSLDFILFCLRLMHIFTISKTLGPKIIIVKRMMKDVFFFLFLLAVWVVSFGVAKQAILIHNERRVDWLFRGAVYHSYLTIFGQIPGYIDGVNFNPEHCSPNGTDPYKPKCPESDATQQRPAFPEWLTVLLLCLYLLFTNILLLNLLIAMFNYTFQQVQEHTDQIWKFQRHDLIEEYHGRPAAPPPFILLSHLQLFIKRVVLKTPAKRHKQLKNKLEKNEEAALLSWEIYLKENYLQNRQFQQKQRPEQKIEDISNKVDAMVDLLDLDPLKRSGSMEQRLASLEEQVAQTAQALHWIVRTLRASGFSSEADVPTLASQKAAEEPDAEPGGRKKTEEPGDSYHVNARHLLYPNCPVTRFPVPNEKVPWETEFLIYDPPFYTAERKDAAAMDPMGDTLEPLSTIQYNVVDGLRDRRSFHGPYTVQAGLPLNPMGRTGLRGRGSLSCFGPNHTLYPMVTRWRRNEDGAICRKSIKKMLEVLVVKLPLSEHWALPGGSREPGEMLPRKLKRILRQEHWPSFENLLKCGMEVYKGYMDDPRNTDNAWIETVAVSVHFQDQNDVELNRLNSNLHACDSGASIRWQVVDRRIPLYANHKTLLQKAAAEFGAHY
T6 sequence (P48995 whole entry, one chain of several): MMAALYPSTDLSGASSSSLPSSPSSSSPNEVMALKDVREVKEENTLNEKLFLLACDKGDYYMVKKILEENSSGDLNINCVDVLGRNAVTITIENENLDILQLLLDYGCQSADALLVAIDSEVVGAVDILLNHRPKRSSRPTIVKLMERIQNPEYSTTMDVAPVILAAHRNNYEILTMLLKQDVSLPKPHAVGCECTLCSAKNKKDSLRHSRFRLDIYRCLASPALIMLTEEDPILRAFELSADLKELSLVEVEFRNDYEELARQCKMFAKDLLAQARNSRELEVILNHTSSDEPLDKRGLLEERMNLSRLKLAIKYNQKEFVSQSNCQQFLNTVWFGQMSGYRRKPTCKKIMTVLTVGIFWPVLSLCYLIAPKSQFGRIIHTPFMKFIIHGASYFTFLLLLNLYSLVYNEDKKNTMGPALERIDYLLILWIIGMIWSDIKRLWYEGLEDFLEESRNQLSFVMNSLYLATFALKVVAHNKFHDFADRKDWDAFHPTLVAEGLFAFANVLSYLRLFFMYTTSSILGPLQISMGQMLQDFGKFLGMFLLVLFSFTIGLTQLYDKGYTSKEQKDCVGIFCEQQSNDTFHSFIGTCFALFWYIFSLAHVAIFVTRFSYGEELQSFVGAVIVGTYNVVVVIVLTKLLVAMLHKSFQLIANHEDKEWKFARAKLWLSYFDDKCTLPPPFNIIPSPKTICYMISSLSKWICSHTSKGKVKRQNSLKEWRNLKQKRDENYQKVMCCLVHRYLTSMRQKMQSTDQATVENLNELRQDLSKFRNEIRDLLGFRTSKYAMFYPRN

In the case of `O=c1c(-c2ccc(O)cc2)coc2cc(O)cc(O)c12` [genistein], the “effect on 3T3-L1 cell proliferation and differentiation” value [1] is listed as “inhibited proliferation and subsequent differentiation” and the “effect on TRPC5” value [2] is listed as “stimulated”.

In the case of `O=c1c(O)c(-c2ccccc2Br)oc2cc(O)cc(O)c12` [AM12, 3,5,7‐trihydroxy‐2‐(2‐bromophenyl)‐4H‐chromen‐4‐one], the “effect on S1P and LPC responses in Tet- cells” value [3] is reported as “no effects”, the “effect on ATP response in the presence of extracellular Ca2+” value ([3]; 100 μM ATP) is reported as “enhanced” and the “average inhibition of TRPC4 current” value [4] is reported as ~ 80%. For the same molecule, the IC50 ([5]; TRPC5 (Tet+) HEK 293, Gd3+, fura-2, read-out: IC50, inhibition of Gd3+-evoked Ca2+ entry) was 280 nM, the “effect on Ca2+ release evoked by thapsigargin” value ([6]; 3 μM thapsigargin) was “no effect” and the “effect on Ca2+ release evoked by ATP” value ([6]; 100 μM ATP) was “no effect”. For the same molecule, the “effect on Ca2+ entry through TRPV4 channels” value [7] was “significant stimulatory effect”, the recovery on washout [8] was “fast recovery on washout” and the “effect on S1P-evoked Ca2+ entry” value ([9]; 5 μM S1P) was “stimulated rather than inhibited”. The “effect on LPC-evoked Ca2+ entry” value ([9]; 10 μM LPC) was “enhanced”, the “effect on Ca2+ entry through TRPC3 channels” value [10] was “did not reach statistical significance” and the “effect on TRPM2 channels” value [11] was “no effect”. The “inhibition of TRPC1-TRPC5 heteromeric channel current” value [12] was ~ 20%.

For `O=c1cc(-c2ccc(O)cc2)oc2cc(O)cc(O)c12` [Apigenin], the “effect on GABA-evoked ionic currents” value [13] is listed as “inhibited”, the “effect on Gd3+-evoked Ca2+ entry (natural flavonoid screen)” value ([5]; 10 μM, 50 μM Gd3+, XRhod-1) is listed as “stimulatory effect” and the “effect on TRPV4 channels” value [14] is listed as “stimulating”. The “effect on TRPC5-mediated whole-cell current (no other activator)” value [15] was “stimulate”.

— PMC4728423, “Natural and synthetic flavonoid modulation of TRPC5 channels” (British Journal of Pharmacology, 2016)
